According to article PMC9578143, “Small-Molecule Ebselen Binds to YTHDF Proteins Interfering with the Recognition of N^6-Methyladenosine-Modified RNAs” (ACS Pharmacology & Translational Science, 2022):
Entries after “also recorded” stand apart in the source; their conditions may differ. Like-named read-outs stand apart in the source and are kept apart here.

Legend:
[1] = target: T1, YTH domain of the YTHDC1 protein (Homo sapiens, UniProt Q96MU7); test: Tryptophan fluorescence quenching assay; type: binding
T1 construct: made in house
Protocol: (§1) Fluorescence was measured using a Tecan Infinite 200 Microplate reader (Tecan Group Ltd.), setting the […] wavelength at 288 nm and collecting the emission data at 330 nm.

[2] = target: T2, YTHDF1 YTH domain (Homo sapiens, UniProt Q9BYJ9); test: Tryptophan fluorescence quenching assay; type: binding
T2 construct: The human YTHDF1 YTH domain (amino acids 365–554, PDB: 4RCJ); host or cells: E. coli BL21(DE3)
T2 sequence (Q9BYJ9 365-554): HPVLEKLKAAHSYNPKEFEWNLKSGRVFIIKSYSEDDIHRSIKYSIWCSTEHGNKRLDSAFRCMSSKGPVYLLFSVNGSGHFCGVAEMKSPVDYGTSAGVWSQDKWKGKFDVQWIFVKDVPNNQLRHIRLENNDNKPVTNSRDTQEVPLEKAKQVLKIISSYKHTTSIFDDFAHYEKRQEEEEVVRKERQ
Protocol: as §1

[3] = target: T3, human YTHDF2 YTH domain (Homo sapiens, UniProt Q9Y5A9); test: Tryptophan fluorescence quenching assay; type: binding
T3 construct: the human YTHDF2 YTH domain (amino acids 383–553, PDB: 4WQN); made in house; host or cells: E. coli BL21(DE3)
T3 sequence (Q9Y5A9 383-553): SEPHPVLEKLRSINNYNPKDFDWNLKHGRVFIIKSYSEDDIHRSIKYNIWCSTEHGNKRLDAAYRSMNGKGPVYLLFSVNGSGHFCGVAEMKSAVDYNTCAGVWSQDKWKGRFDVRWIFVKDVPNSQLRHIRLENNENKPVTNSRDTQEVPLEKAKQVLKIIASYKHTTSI
Protocol: as §1

[4] = target: T4, YTHDF1 domain (Homo sapiens, UniProt Q9BYJ9); test: Dynamic mass redistribution (DMR), label-free; settings: immobilized YTHDF1 domain, binding at equilibrium
T4 construct: The human YTHDF1 YTH domain (amino acids 365–554, PDB: 4RCJ); host or cells: E. coli BL21(DE3)
T4 sequence (Q9BYJ9 365-554): T2 sequence (Q9BYJ9 365-554)
Protocol: The protein was immobilized in a final volume of 15 μL/well of a 50 μg/mL solution in 20 mM sodium acetate buffer, pH 6, onto the surface of label-free microplates by amine-coupling chemistry. Different concentrations of ebselen (300 nM to 50 μM) were added to the plate and the mass of the molecular complex was measured every minute for 1 h. […]
probe with the YTH domain of YTHDF1 calculated with the DMR. rYTH was immobilized to the wells with amino-coupled chemistry and different concentrations of RNA were added to the plate.
Measurements were performed before adding the RNA, in order to define a baseline, and after the addition. Final response (pm) was obtained by subtracting to the last measurement the baseline.
Signal for each well was obtained by subtracting the signal of a reference area with the protein coated to an uncoated one. Data were fitted according to a four-parameter nonlinear regression […]
(1 picture or pasted object on this page, not shown here)

[5] = tested on: m6A-mRNAs (CREBBP, YTHDF2, GATA2, HNRNPF) in PC-3 cells; test: m6A mRNA stability measurement with actinomycin D; type: cell-based, human; settings: 4 h co-treatment with actinomycin D, versus DMSO, listed as ebselen
Protocol: PC-3 cells were plated on a six-well dish. At 70–80% confluency, cells were treated with […] actinomycin D or vehicle (DMSO) to inhibit transcription in combination with 50 μM ebselen for 4 h before collection. As a control, cells were treated with actinomycin D or vehicle (DMSO) for 4 h. Total RNA was isolated from cells using TRIzol according to the manufacturer’s instructions. For each condition, the same amount of total RNA was reverse-transcribed to cDNA (2 μg) using the SuperScript IV First-Strand kit. Oligo-dT primers were used during the cDNA synthesis step. This allowed us to selectively convert to cDNA the amount of intact RNA still present in cells upon actinomycin D treatment while avoiding the conversion of fragmented RNA to cDNA. qRT-PCR experiments were performed in duplicates and normalized on a stable mRNA, GAPDH.

[6] = target: T5, recombinant YTH domain of the YTHDF1 protein (Homo sapiens, UniProt Q9BYJ9); test: ESI-MS of the protein after incubation with the compound; type: binding
T5 construct: The human YTHDF1 YTH domain (amino acids 365–554, PDB: 4RCJ); host or cells: E. coli BL21(DE3)
T5 sequence (Q9BYJ9 365-554): T2 sequence (Q9BYJ9 365-554)

[7] = target: T2, YTHDF1 YTH domain; test: NMR titration (2D 1H-15N HSQC) in reducing conditions; type: binding; settings: 10 mM β-mercaptoethanol, 100 μM protein
Protocol: To further investigate the ligand–protein interaction in reversible conditions, the resonances of the YTHDF1 YTH domain were assigned. The protein sample was titrated with ebselen, in the presence of β-mercaptoethanol (10 mM) as a reducing agent, to prevent the covalent bond formation. The titration was monitored by NMR to map at atomic resolution the ligand-binding site on the protein surface. Increasing amounts of the ligand (12.5, 25, 50, 100, and 200 μM) were added to the protein solution during the NMR titration, and 2D ^1H–^15N heteronuclear single quantum coherence (HSQC) spectra were acquired.
The interaction of the protein with ebselen was investigated by solution NMR. 2D ^1H–^15N HSQC spectra were acquired on a spectrometer operating at 950 MHz and 298 K, on the free protein (100 μM in 20 mM Tris buffer, pH 7.5, 150 mM NaCl, 250 mM LiCl, 10 mM 2-mercaptoethanol, 0.5 mM EDTA, 0.1% NaN3, and protease inhibitors) and after the addition of increasing aliquots of a solution of the ligand in DMSO-d6 to reach the final concentrations of 12.5, 25, 50, 100, and 200 μM.

O=c1c2ccccc2[se]n1-c1ccccc1 [Compound 1, 2-phenyl-1,2-benzisoselenazol-3(2H)-one]
Interaction with the YTH domain (tryptophan fluorescence, in words) ([1]; listed as Ebselen): cannot reduce tryptophan fluorescence | Interaction with the YTH domain (tryptophan fluorescence, in words) ([1]; listed as ebselen): did not interact | EC50 ([2]; 5 μM protein, read-out: EC50 (tryptophan quenching)): 1.63 µM | EC50 ([2]; Table 1, read-out: EC50 (μM) (Tryptophan quenching)): 1.5 ± 0.24 µM | EC50 [3]: 1660 nM | EC50 [4]: 3220 nM | Stability of methylated mRNAs (in words) [5]: increase in mRNA stability; also recorded: increased the stability of methylated genes | Mass shift of the YTH domain (ESI-MS) ([6]; 5 μM protein, 50 μM compound, 60 min, no DTT): 274.96 Da | Mass of the YTH domain after incubation (ESI-MS, in words) ([6]; in the presence of 1 mM DTT): matched that of the unmodified YTH domain | Affinity constant judged from NMR titration (in words) [7]: low micromolar range
